Series [1] is described as follows: Spreading coefficient of esters (typical properties). It counts as physicochemical. More on the design: unit not given here. As for the experimental part:
(§1) An analysis of the esters of the invention, i.e., Benzoate ester (Ref. No. 130-63); Octanoate Ester (Ref. No. 130-67); and Maleate Ester (Ref. No. 134-26), was conducted as to appearance, color, percentage water, acidity, saponification value, surface tension, spreading coefficient, freezing point, refractive index and specific gravity. The results are presented in Table I which identifies typical properties of the esters of the invention.

Series [2] in a line: Viscosity of esters (typical properties). It counts as physicochemical. The conditions noted are these: @ 25° C. As for the experimental part:
as §1

Series [3] is described as follows: Surface tension of esters (typical properties). It counts as physicochemical. The method, then:
as §1

A short description of series [4]: Solubility of esters in various solvents (1 gram of ester in 10 gm. solvent).

As for “Di(C16–17 alkyl) maleate [Maleate Ester (134-26)]”, the “Spreading Coefficient” value in series [1] was found to be 34.0. Also, in series [2], the Viscosity was 80 cps. In addition, the “Surface Tension” value in series [3] stood at 30.5 dynes/cm. In addition, in series [4], the “Solubility in Dow Corning Fluid 245/345” value is given as “+”, the “Solubility in Ethanol” value is reported as “+”, the “Solubility in Finester EH-25” value is given as “+” and the “Solubility in Finsolv BOD” value was “+”. Further, in series [4], the “Solubility in Finsolv EB” value is recorded as “+”, the “Solubility in Finsolv EMG-20” value is recorded as “−”, the “Solubility in Finsolv P” value is given as “+” and the “Solubility in Finsolv PG-22” value is reported as “+”. In series [4], the “Solubility in Finsolv PL-62” value is “+”, the “Solubility in Finsolv PL-355” value is reported as “+”, the “Solubility in Finsolv SB” value is on record as “+” and the “Solubility in Finsolv TN” value is given as “+”. For the same substance, in series [4], the “Solubility in Glycerine” value is “−”, the “Solubility in IPM/IPP (Witconol 2314/2316)” value is on record as “+”, the “Solubility in Mineral Oil” value is on record as “+” and the “Solubility in Propylene Glycol” value is reported as “−”. The “Solubility in Water” value in series [4] is recorded as “−”.

The values are drawn from patent US7166739B2, “Esters of monomethyl branched alcohols and process for preparing and using same in cosmetics and personal care products” (Finetex, Inc., priority 2004, dated 2007).
